Assay results reported in paper PMC6214026, “PSMA-Oriented Target Delivery of Novel Anticancer Prodrugs: Design, Synthesis, and Biological Evaluations of Oligopeptide-Camptothecin Conjugates” (International Journal of Molecular Sciences, 2018).
Like-named read-outs stand apart in the source and are kept apart here.

Key:
[1] = tested on: LNCaP-FGC cells (PSMA-expressing); assay: MTT cytotoxicity assay, LNCaP-FGC; type: cell-based, human; conditions: 72 h, read-out: IC50 LNCaP-FGC
Experimental: (§1) The cytotoxicities of PSMA-activated prodrug CPT-HT-J-ZLn and PSMA hydrolysate CPT-D-GLn were evaluated by MTT assays on PSMA-expressing (PSMA^+) cancer cell LNCaP-FGC, non-PSMA-expressing (PSMA^−) cancer cells HepG2, MCF-7, Hela, DU145, and PC-3, and normal cells MDCK, LO2, respectively, using CPT as a positive control.
(§2) The human prostate cancer cell line (LNCaP-FGC), human prostate cancer cell line (PC-3), human prostate cancer cell line (DU-145), human breast cancer cell line (MCF-7), human hepatocellular carcinoma cell line (HepG2), human cervical cancer cell line (Hela), were obtained from the Chinese Academy of Medical Sciences and Peking Union Medical College. The cultures of the cells were maintained as a monolayer in RPMI 1640 or DMEM supplemented with 10% (v/v) heat inactivated fetal bovine serum and 1% (v/v) enicillin/streptomycin (Corning, New York, NY, USA) and incubated at 37 °C in a humidified atmosphere with 5% CO2. The tested compounds were dissolved in DMSO (Sigma, St. Louis, MO, USA) and added at required concentrations to the cell culture.
(§3) The cytotoxicity of all the tested compounds was evaluated in vitro via the MTT method against PSMA-expressing LNCaP-FGC cells and non-PSMA-expressing cells HepG2, Hela, MCF-7, DU145, PC-3 cells using CPT as the positive control. Tumor cells growing in the logarithmic phase were seeded in 96-well plates at a density 3 × 10^3 cells/well and incubated overnight. The following day, cells were then treated with serial dilutions of the tested compounds for 72 h. At the end of this incubation, 20 µL of 5 mg/mL methylthiazol tetrazolium (MTT) was added to each well and incubation proceeded at 37 °C for another 4 h. After the supernatant medium was thrown away, 150 µL dimethylsulphoxide (DMSO) were added to each well and absorbance was measured at 490 nm using a plate reader (BIORAD 550 spectrophotometer, Bio-rad Life Science Development Ltd., Berkeley, CA, USA). Experiments were performed in triplicate and the values were the average of three (n = 3) independent experiments. The concentration of the compound that results in 50% growth inhibition corresponds to the IC50. Tumor cell growth inhibitory rate was calculated using Equation (1): % inhibition = (1 − Sample group OD/Control group OD) × 100%(1)

[2] = tested on: MCF-7 cells (non-PSMA-expressing); assay: cells; type: cell-based, human; conditions: read-out: IC50 MCF-7
Experimental: as §1, §2, §3

[3] = tested on: DU145 cells (non-PSMA-expressing); assay: cells; type: cell-based, human; conditions: read-out: IC50 DU145
Experimental: as §1, §2, §3

[4] = tested on: PC-3 cells (non-PSMA-expressing); assay: cells; type: cell-based, human; conditions: read-out: IC50 PC-3
Experimental: as §1, §2, §3

[5] = tested on: HepG2 cells (non-PSMA-expressing); assay: cells; type: cell-based, human; conditions: read-out: IC50 HepG2
Experimental: as §1, §2, §3

[6] = tested on: HeLa cells (non-PSMA-expressing); assay: MTT cytotoxicity assay, HeLa; type: cell-based, human; conditions: 72 h, mean ± SD, n = 3
Experimental: as §1
The tested compounds were dissolved in DMSO (Sigma, St. Louis, MO, USA) and added at required concentrations to the cell culture.
as §3, with “experiments.” for “experiments. The concentration of the compound that results in 50% growth inhibition corresponds to the IC50. Tumor cell growth inhibitory rate was calculated using Equation (1): % inhibition = (1 − Sample group OD/Control group OD) × 100%(1)”

MDCK cells = assay: cells; type: cell-based; conditions: 72 h, read-out: IC50 MDCK
Experimental: as §1, §3

LO2 cells = assay: cells; type: cell-based; conditions: read-out: IC50 LO2
Experimental: as §1, §3

CC[C@@]1(OC(=O)CNC(=O)[C@H](CCC(=O)N[C@@H](CCC(=O)N[C@@H](CCC(=O)N[C@@H](CC(=O)OC(C)(C)C)C(=O)N[C@@H](CCC(=O)OC(C)(C)C)C(=O)OC(C)(C)C)C(=O)OC(C)(C)C)C(=O)OC(C)(C)C)NC(=O)OC(C)(C)C)C(=O)OCc2c1cc1n(c2=O)Cc2cc3ccccc3nc2-1 [CPT-HT-J-L2, 14,22,24,9-tetra-tert-butyl 1-((S)-4-ethyl-3,14-dioxo-3,4,12,14-tetrahydro-1H-pyrano[3′,4′:6,7]indolizino[1,2-b]quinolin-4-yl) (4S,9S,14S,19S,22S)-19-(2-(tert-butoxy)-2-oxoethyl)-4-((tert-butoxycarbonyl)amino)-3,7,12,17,20-pentaoxo-2,8,13,18,21-pentaazatetracosane-1,9,14,22,24-pentacarboxylate]
IC50 ([1]; MTT, mean ± SD, n = 3, PSMA+): > 40 µM | IC50 ([2]; MTT, 72 h, mean ± SD, n = 3): > 40 µM | IC50 ([3]; MTT, 72 h, mean ± SD, n = 3): > 40 µM | IC50 ([4]; MTT, 72 h, mean ± SD, n = 3): > 40 µM | IC50 ([5]; MTT, 72 h, mean ± SD, n = 3): > 40 µM | IC50 [6]: > 40 µM | IC50 (MDCK cells; MTT, normal cells): > 40 µM | IC50 (LO2 cells; MTT, 72 h, normal cells): > 40 µM

CC[C@@]1(OC(=O)CCCCCCCCCCCN)C(=O)OCc2c1cc1n(c2=O)Cc2cc3ccccc3nc2-1 [CPT-B-L12, (S)-4-ethyl-3,14-dioxo-3,4,12,14-tetrahydro-1H-pyrano[3′,4′:6,7]indolizino[1,2-b]quinolin-4-yl 12-aminododecanoate]
IC50 ([1]; Homo sapiens): 1.93 ± 1.03 µM | IC50 ([2]; Homo sapiens, MCF7, 72 h): 5.76 ± 0.86 µM | IC50 ([3]; Homo sapiens, DU-145, 72 h): 7.32 ± 1.43 µM | IC50 ([4]; Homo sapiens, PC-3, 72 h): 6.45 ± 0.42 µM | IC50 ([5]; Homo sapiens, HepG2, 72 h): > 40 µM | IC50 ([6]; Homo sapiens, HeLa): > 40 µM | IC50 (MDCK cells; Canis lupus familiaris, MDCK): 5.2 ± 0.88 µM | IC50 (LO2 cells; Homo sapiens, L02, 72 h): 2.63 ± 0.84 µM

CC[C@@]1(OC(=O)CCCNC(=O)[C@H](CCC(=O)N[C@@H](CCC(=O)N[C@@H](CCC(=O)N[C@@H](CC(=O)OC(C)(C)C)C(=O)N[C@@H](CCC(=O)OC(C)(C)C)C(=O)OC(C)(C)C)C(=O)OC(C)(C)C)C(=O)OC(C)(C)C)NC(=O)OC(C)(C)C)C(=O)OCc2c1cc1n(c2=O)Cc2cc3ccccc3nc2-1 [CPT-HT-J-L4, 1,11,16,3-tetra-tert-butyl 26-((S)-4-ethyl-3,14-dioxo-3,4,12,14-tetrahydro-1H-pyrano[3′,4′:6,7]indolizino[1,2-b]quinolin-4-yl) (3S,6S,11S,16S,21S)-6-(2-(tert-butoxy)-2-oxoethyl)-21-((tert-butoxycarbonyl)amino)-5,8,13,18,22-pentaoxo-4,7,12,17,23-pentaazahexacosane-1,3,11,16,26-pentacarboxylate]
IC50 ([1]; MTT, mean ± SD, n = 3, PSMA+): > 40 µM | IC50 ([2]; MTT, 72 h, mean ± SD, n = 3): > 40 µM | IC50 ([3]; MTT, 72 h, mean ± SD, n = 3): > 40 µM | IC50 ([4]; MTT, 72 h, mean ± SD, n = 3): > 40 µM | IC50 ([5]; MTT, 72 h, mean ± SD, n = 3): > 40 µM | IC50 [6]: > 40 µM | IC50 (MDCK cells; MTT, normal cells): > 40 µM | IC50 (LO2 cells; MTT, 72 h, normal cells): > 40 µM

CC[C@@]1(OC(=O)CCCCCCCCCCCNC(=O)[C@@H](N)CCC(=O)O)C(=O)OCc2c1cc1n(c2=O)Cc2cc3ccccc3nc2-1 [CPT-D-GL12, (S)-4-amino-5-((12-(((S)-4-ethyl-3,14-dioxo-3,4,12,14-tetrahydro-1H-pyrano[3′,4′:6,7]indolizino[1,2-b]quinolin-4-yl)oxy)-12-oxododecyl)amino)-5-oxopentanoic acid]
IC50 ([1]; Homo sapiens): 2.1 ± 0.68 µM | IC50 ([2]; Homo sapiens, MCF7, 72 h): > 40 µM | IC50 ([3]; Homo sapiens, DU-145, 72 h): 7.38 ± 0.2 µM | IC50 ([4]; Homo sapiens, PC-3, 72 h): > 40 µM | IC50 ([5]; Homo sapiens, HepG2, 72 h): > 40 µM | IC50 ([6]; Homo sapiens, HeLa): 25.5 ± 1 µM | IC50 (MDCK cells; Canis lupus familiaris, MDCK): 5.1 ± 1.1 µM | IC50 (LO2 cells; Homo sapiens, L02, 72 h): 3.8 ± 0.8 µM

CC[C@@]1(OC(=O)CCCCCNC(=O)[C@H](CCC(=O)N[C@@H](CCC(=O)N[C@@H](CCC(=O)N[C@@H](CC(=O)OC(C)(C)C)C(=O)N[C@@H](CCC(=O)OC(C)(C)C)C(=O)OC(C)(C)C)C(=O)OC(C)(C)C)C(=O)OC(C)(C)C)NC(=O)OC(C)(C)C)C(=O)OCc2c1cc1n(c2=O)Cc2cc3ccccc3nc2-1 [CPT-HT-J-L6, 1,11,16,3-tetra-tert-butyl 28-((S)-4-ethyl-3,14-dioxo-3,4,12,14-tetrahydro-1H-pyrano[3′,4′:6,7]indolizino[1,2-b]quinolin-4-yl) (3S,6S,11S,16S,21S)-6-(2-(tert-butoxy)-2-oxoethyl)-21-((tert-butoxycarbonyl)amino)-5,8,13,18,22-pentaoxo-4,7,12,17,23-pentaazaoctacosane-1,3,11,16,28-pentacarboxylate]
IC50 ([1]; MTT, mean ± SD, n = 3, PSMA+): > 40 µM | IC50 ([2]; MTT, 72 h, mean ± SD, n = 3): > 40 µM | IC50 ([3]; MTT, 72 h, mean ± SD, n = 3): > 40 µM | IC50 ([4]; MTT, 72 h, mean ± SD, n = 3): > 40 µM | IC50 ([5]; MTT, 72 h, mean ± SD, n = 3): > 40 µM | IC50 [6]: > 40 µM | IC50 (MDCK cells; MTT, normal cells): > 40 µM | IC50 (LO2 cells; MTT, 72 h, normal cells): > 40 µM

CC[C@@]1(OC(=O)CCCNC(=O)[C@@H](N)CCC(=O)N[C@@H](CCC(=O)N[C@@H](CCC(=O)N[C@@H](CC(=O)O)C(=O)N[C@@H](CCC(=O)O)C(=O)O)C(=O)O)C(=O)O)C(=O)OCc2c1cc1n(c2=O)Cc2cc3ccccc3nc2-1 [CPT-HT-J-ZL4, (3S,6S,11S,16S,21S)-21-amino-6-(carboxymethyl)-27-(((S)-4-ethyl-3,14-dioxo-3,4,12,14-tetrahydro-1H-pyrano[3′,4′:6,7]indolizino[1,2-b]quinolin-4-yl)oxy)-5,8,13,18,22,27-hexaoxo-4,7,12,17,23-pentaazaheptacosane-1,3,11,16-tetracarboxylic acid]
IC50 ([1]; MTT, mean ± SD, n = 3, PSMA+): 1.18 ± 0.1 µM | IC50 ([2]; MTT, 72 h, mean ± SD, n = 3): 0.32 ± 0.01 µM | IC50 ([3]; MTT, 72 h, mean ± SD, n = 3): 9.73 ± 3.49 µM | IC50 ([4]; MTT, 72 h, mean ± SD, n = 3): 9.98 ± 2.38 µM | IC50 ([5]; MTT, 72 h, mean ± SD, n = 3): > 40 µM | IC50 [6]: > 40 µM | IC50 (MDCK cells; MTT, normal cells): 9.13 ± 2.4 µM | IC50 (LO2 cells; MTT, 72 h, normal cells): > 40 µM

CC[C@@]1(OC(=O)CNC(=O)[C@@H](N)CCC(=O)N[C@@H](CCC(=O)N[C@@H](CCC(=O)N[C@@H](CC(=O)O)C(=O)N[C@@H](CCC(=O)O)C(=O)O)C(=O)O)C(=O)O)C(=O)OCc2c1cc1n(c2=O)Cc2cc3ccccc3nc2-1 [CPT-HT-J-ZL2, ((S)-4-((S)-4-((S)-4-amino-5-((2-(((S)-4-ethyl-3,14-dioxo-3,4,12,14-tetrahydro-1H-pyrano[3′,4′:6,7]indolizino[1,2-b]quinolin-4-yl)oxy)-2-oxoethyl)amino)-5-oxopentanamido)-4-carboxybutanamido)-4-carboxybutanoyl)-L-aspartyl-L-glutamic acid]
IC50 ([1]; MTT, mean ± SD, n = 3, PSMA+): 2.04 ± 0.3 µM | IC50 ([2]; MTT, 72 h, mean ± SD, n = 3): 0.11 ± 0.08 µM | IC50 ([3]; MTT, 72 h, mean ± SD, n = 3): 1.16 ± 0.28 µM | IC50 ([4]; MTT, 72 h, mean ± SD, n = 3): 1 ± 0.1 µM | IC50 ([5]; MTT, 72 h, mean ± SD, n = 3): > 40 µM | IC50 [6]: 3.54 ± 2.54 µM | IC50 (MDCK cells; MTT, normal cells): 1.27 ± 0.3 µM | IC50 (LO2 cells; MTT, 72 h, normal cells): 1.68 ± 0.45 µM

CC[C@@]1(OC(=O)CNC(=O)[C@@H](N)CCC(=O)O)C(=O)OCc2c1cc1n(c2=O)Cc2cc3ccccc3nc2-1 [CPT-D-GL2, (S)-4-amino-5-((2-(((S)-4-ethyl-3,14-dioxo-3,4,12,14-tetrahydro-1H-pyrano[3′,4′:6,7]indolizino[1,2-b]quinolin-4-yl)oxy)-2-oxoethyl)amino)-5-oxopentanoic acid]
IC50 ([1]; Homo sapiens): 3.68 ± 0.36 µM | IC50 ([2]; Homo sapiens, MCF7, 72 h): 0.3 ± 0.05 µM | IC50 ([3]; Homo sapiens, DU-145, 72 h): 0.4 ± 0.05 µM | IC50 ([4]; Homo sapiens, PC-3, 72 h): 1.5 ± 0.2 µM | IC50 ([5]; Homo sapiens, HepG2, 72 h): > 40 µM | IC50 ([6]; Homo sapiens, HeLa): > 40 µM | IC50 (MDCK cells; Canis lupus familiaris, MDCK): 0.26 ± 0.14 µM | IC50 (LO2 cells; Homo sapiens, L02, 72 h): 0.16 ± 0.07 µM
